Test results reported in US12077503B2, “Substituted cyclic amides and their use as herbicides” (FMC CORPORATION, priority 2015, dated 2024).

Assays:
Assay in all cases: Test C preemergence
Type in all cases: in vivo
[1] = system: velvetleaf (Abutilon theophrasti); conditions: for Plant response rating, Velvetleaf: scale 0 to 100, 0 no effect, 100 complete control
In short: (§1)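 Scores of 0 to 100 reflect visual comparison with control plants, where 0 means no effect and 100 complete control, made 13 to 15 d after treatment. Application was preemergence to seeds in loam-sand soil or postemergence to plants 2 to 18 cm tall in peat-based mix, using a surfactant-containing solvent formulation.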

[2] = system: waterhemp (common waterhemp, Amaranthus rudis); conditions: for Plant response rating, Waterhemp: scale 0 to 100, 0 no effect, 100 complete control
In short: as §1

[3] = system: nutsedge, yellow (yellow nutsedge, Cyperus esculentus); conditions: for Plant response rating, Nutsedge, Yellow: scale 0 to 100, 0 no effect, 100 complete control
In short: as §1

[4] = system: crabgrass, large (large crabgrass, Digitaria sanguinalis); conditions: for Plant response rating, Crabgrass, Large: scale 0 to 100, 0 no effect, 100 complete control
In short: as §1

[5] = system: foxtail, giant (giant foxtail, Setaria faberii); conditions: for Plant response rating, Foxtail, Giant: scale 0 to 100, 0 no effect, 100 complete control
In short: as §1

[6] = system: lambsquarters (Chenopodium album); conditions: for Plant response rating, Lambsquarters: scale 0 to 100, 0 no effect, 100 complete control
In short: as §1

[7] = system: ryegrass, Italian (Italian ryegrass, Lolium multiflorum); conditions: for Plant response rating, Ryegrass, Italian: scale 0 to 100, 0 no effect, 100 complete control
In short: as §1

corn (Zea mays) = conditions: for Plant response rating, Corn: scale 0 to 100, 0 no effect, 100 complete control
In short: as §1

[8] = system: Galium (catchweed bedstraw, Galium aparine); conditions: for Plant response rating, Galium: scale 0 to 100, 0 no effect, 100 complete control
In short: as §1

[9] = system: pigweed (Amaranthus retroflexus); conditions: for Plant response rating, Pigweed: scale 0 to 100, 0 no effect, 100 complete control
In short: as §1

[10] = system: barnyardgrass (Echinochloa crus-galli); conditions: for Plant response rating, Barnyardgrass: scale 0 to 100, 0 no effect, 100 complete control
In short: as §1

[11] = system: ragweed (common ragweed, Ambrosia elatior); conditions: for Plant response rating, Ragweed: scale 0 to 100, 0 no effect, 100 complete control
In short: as §1

soybean (Glycine max) = conditions: for Plant response rating, Soybean: scale 0 to 100, 0 no effect, 100 complete control
In short: as §1

[12] = system: johnsongrass (Sorghum halepense); conditions: for Plant response rating, Johnsongrass: scale 0 to 100, 0 no effect, 100 complete control
In short: as §1

[13] = system: blackgrass (Alopecurus myosuroides); conditions: for Plant response rating, Blackgrass: scale 0 to 100, 0 no effect, 100 complete control
In short: as §1

[14] = system: oilseed rape (Brassica napus); conditions: for Plant response rating, Oilseed Rape: scale 0 to 100, 0 no effect, 100 complete control
In short: as §1

[15] = system: wheat (winter wheat, Triticum aestivum); conditions: for Plant response rating, Wheat: scale 0 to 100, 0 no effect, 100 complete control
In short: as §1

[16] = system: morningglory (Ipomoea coccinea); conditions: for Plant response rating, Morningglory: scale 0 to 100, 0 no effect, 100 complete control
In short: as §1

[17] = 31 g ai/ha, 0 is no effect, 100 is complete control

O=C1NCC(c2cccc(C(F)(F)F)c2F)C1C(=O)Nc1cccc(F)c1F (stereo not drawn) [Compound 591]
Plant response rating (scale of 0 to 100), Velvetleaf [1, 17]: 0
Plant response rating, Velvetleaf ([1]; 62 g ai/ha): 0
Plant response rating, Velvetleaf ([1]; 125 g ai/ha): 20
Plant response rating, Velvetleaf ([1]; 250 g ai/ha): 20
Plant response rating (scale of 0 to 100), Waterhemp [2, 17]: 5
Plant response rating, Waterhemp ([2]; 62 g ai/ha): 30
Plant response rating, Waterhemp ([2]; 125 g ai/ha): 65
Plant response rating, Waterhemp ([2]; 250 g ai/ha): 70
Plant response rating (scale of 0 to 100), Nutsedge, Yellow [3, 17]: 0
Plant response rating, Nutsedge, Yellow ([3]; 62 g ai/ha): 0
Plant response rating, Nutsedge, Yellow ([3]; 125 g ai/ha): 0
Plant response rating, Nutsedge, Yellow ([3]; 250 g ai/ha): 0
Plant response rating (scale of 0 to 100), Crabgrass, Large [4, 17]: 90
Plant response rating, Crabgrass, Large ([4]; 62 g ai/ha): 90
Plant response rating, Crabgrass, Large ([4]; 125 g ai/ha): 90
Plant response rating, Crabgrass, Large ([4]; 250 g ai/ha): 95
Plant response rating (scale of 0 to 100), Foxtail, Giant [5, 17]: 85
Plant response rating, Foxtail, Giant ([5]; 62 g ai/ha): 90
Plant response rating, Foxtail, Giant ([5]; 125 g ai/ha): 90
Plant response rating, Foxtail, Giant ([5]; 250 g ai/ha): 95
Plant response rating (scale of 0 to 100), Lambsquarters [6, 17]: 10
Plant response rating, Lambsquarters ([6]; 62 g ai/ha): 20
Plant response rating, Lambsquarters ([6]; 125 g ai/ha): 35
Plant response rating, Lambsquarters ([6]; 250 g ai/ha): 70
Plant response rating (scale of 0 to 100), Ryegrass, Italian [7, 17]: 0
Plant response rating, Ryegrass, Italian ([7]; 62 g ai/ha): 10
Plant response rating, Ryegrass, Italian ([7]; 125 g ai/ha): 35
Plant response rating, Ryegrass, Italian ([7]; 250 g ai/ha): 75
Plant response rating (scale of 0 to 100), Corn (corn (Zea mays); [17]): 45
Plant response rating, Corn (corn (Zea mays); 62 g ai/ha): 70
Plant response rating, Corn (corn (Zea mays); 125 g ai/ha): 60
Plant response rating, Corn (corn (Zea mays); 250 g ai/ha): 80
Plant response rating (scale of 0 to 100), Galium [8, 17]: 5
Plant response rating, Galium ([8]; 62 g ai/ha): 50
Plant response rating, Galium ([8]; 125 g ai/ha): 50
Plant response rating, Galium ([8]; 250 g ai/ha): 80
Plant response rating (scale of 0 to 100), Pigweed [9, 17]: 10
Plant response rating, Pigweed ([9]; 62 g ai/ha): 45
Plant response rating, Pigweed ([9]; 125 g ai/ha): 60
Plant response rating, Pigweed ([9]; 250 g ai/ha): 75
Plant response rating (scale of 0 to 100), Barnyardgrass [10, 17]: 90
Plant response rating, Barnyardgrass ([10]; 62 g ai/ha): 90
Plant response rating, Barnyardgrass ([10]; 125 g ai/ha): 95
Plant response rating, Barnyardgrass ([10]; 250 g ai/ha): 95
Plant response rating (scale of 0 to 100), Ragweed [11, 17]: 0
Plant response rating, Ragweed ([11]; 62 g ai/ha): 20
Plant response rating, Ragweed ([11]; 125 g ai/ha): 35
Plant response rating, Ragweed ([11]; 250 g ai/ha): 70
Plant response rating (scale of 0 to 100), Soybean (soybean (Glycine max); [17]): 0
Plant response rating, Soybean (soybean (Glycine max); 62 g ai/ha): 0
Plant response rating, Soybean (soybean (Glycine max); 125 g ai/ha): 0
Plant response rating, Soybean (soybean (Glycine max); 250 g ai/ha): 0
Plant response rating (scale of 0 to 100), Johnsongrass [12, 17]: 35
Plant response rating, Johnsongrass ([12]; 62 g ai/ha): 55
Plant response rating, Johnsongrass ([12]; 125 g ai/ha): 75
Plant response rating, Johnsongrass ([12]; 250 g ai/ha): 85
Plant response rating (scale of 0 to 100), Blackgrass [13, 17]: 30
Plant response rating, Blackgrass ([13]; 62 g ai/ha): 85
Plant response rating, Blackgrass ([13]; 125 g ai/ha): 90
Plant response rating, Blackgrass ([13]; 250 g ai/ha): 90
Plant response rating (scale of 0 to 100), Oilseed Rape [14, 17]: 5
Plant response rating, Oilseed Rape ([14]; 62 g ai/ha): 20
Plant response rating, Oilseed Rape ([14]; 125 g ai/ha): 30
Plant response rating, Oilseed Rape ([14]; 250 g ai/ha): 85
Plant response rating (scale of 0 to 100), Wheat [15, 17]: 0
Plant response rating, Wheat ([15]; 62 g ai/ha): 10
Plant response rating, Wheat ([15]; 125 g ai/ha): 30
Plant response rating, Wheat ([15]; 250 g ai/ha): 70
Plant response rating (scale of 0 to 100), Morningglory [16, 17]: 10
Plant response rating, Morningglory ([16]; 62 g ai/ha): 30
Plant response rating, Morningglory ([16]; 125 g ai/ha): 40
Plant response rating, Morningglory ([16]; 250 g ai/ha): 65
